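1) Cells in 96-well plates. 2) Compound, 48 h, 5 concentrations. 3) Linear interpolation between surrounding doses. 4) Unreached endpoint = highest concentration. GI50 marks 50% less growth.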 The source made the active and inactive calls. No stated cut-off is given here; in the data, active = GI50 up to about 1.1 µM and inactive = higher.
How the values were obtained:
Assay in all cases: inhibition of tumour cell growth, NCI panel, 48 h
EKVX = test system: EKVX
U-251 = test system: U-251
HCC 2998 = test system: HCC 2998
SK-MEL-5 = test system: SK-MEL-5
PC-3 = test system: PC-3
OVCAR-4 = test system: OVCAR-4
MDA-N = test system: MDA-N
HCT-116 = test system: HCT-116
M14 = test system: M14
ACHN = test system: ACHN
IGROV-1 = test system: IGROV-1
SK-OV-3 = test system: SK-OV-3
DU-145 = test system: DU-145
T47D = test system: T47D
SR = test system: SR
NCI/ADR-RES = test system: NCI/ADR-RES
HT-29 = test system: HT-29
UACC-62 = test system: UACC-62
LOX IMVI = test system: LOX IMVI

SMILES	GI50 (EKVX)	GI50 (U-251)	GI50 (HCC 2998)	GI50 (SK-MEL-5)	GI50 (PC-3)	GI50 (OVCAR-4)	GI50 (MDA-N)	GI50 (HCT-116)	GI50 (M14)	GI50 (ACHN)	GI50 (IGROV-1)	GI50 (SK-OV-3)	GI50 (DU-145)	GI50 (T47D)	GI50 (SR)	GI50 (NCI/ADR-RES)	GI50 (HT-29)	GI50 (UACC-62)	GI50 (LOX IMVI)
Nc1nc(-c2ccc3ccccc3c2)cc(-c2cc(-c3ccc4ccccc4c3)nc(N)n2)n1	75.3 µM (inactive)	> 100 µM (inactive)	> 100 µM (inactive)	> 100 µM (inactive)	> 100 µM (inactive)	> 100 µM (inactive)	> 100 µM (inactive)	> 100 µM (inactive)	> 100 µM (inactive)	> 100 µM (inactive)	> 100 µM (inactive)	> 100 µM (inactive)	> 100 µM (inactive)	> 100 µM (inactive)	> 100 µM (inactive)	> 100 µM (inactive)	> 100 µM (inactive)	> 100 µM (inactive)	> 100 µM (inactive)
Cc1c(Cl)cc(C(C)(C)C)c(O)c1Cc1c(C)c(Cl)cc(C(C)(C)C)c1O	1.4 µM (inactive)	1.51 µM (inactive)	0.796 µM (active)	0.762 µM (active)	1.64 µM (inactive)	1.26 µM (inactive)	2.18 µM (inactive)	0.536 µM (active)	2.42 µM (inactive)	1.29 µM (inactive)	1.1 µM (active)	2.98 µM (inactive)	1.96 µM (inactive)	0.562 µM (active)	2.18 µM (inactive)	2.14 µM (inactive)	1.54 µM (inactive)	1.62 µM (inactive)	1.56 µM (inactive)
CN(C)CC1CCC/C(=C\c2ccc(OC(=O)c3ccc(Cl)cc3)cc2)C1=O (stereo unspecified)	2.34 µM (inactive)	1.5 µM (inactive)	9.95 µM (inactive)	3.69 µM (inactive)	6.04 µM (inactive)	2.8 µM (inactive)	2.38 µM (inactive)	0.832 µM (active)	1.68 µM (inactive)	3.57 µM (inactive)	2.23 µM (inactive)	10.3 µM (inactive)	2.39 µM (inactive)	0.757 µM (active)	0.583 µM (active)	2.12 µM (inactive)	1.95 µM (inactive)	3.3 µM (inactive)	0.493 µM (active)
C[C@]12CC[C@H](O)C=C1CC[C@@H]1[C@@H]2CC[C@]2(C)C(=N/O)/C(=C/c3ccncc3)C[C@@H]12	16.4 µM (inactive)	6.64 µM (inactive)	3.84 µM (inactive)	5.01 µM (inactive)	2.65 µM (inactive)	10.1 µM (inactive)	9.51 µM (inactive)	5 µM (inactive)	5.7 µM (inactive)	8.43 µM (inactive)	14.8 µM (inactive)	15.6 µM (inactive)	6.34 µM (inactive)	5.38 µM (inactive)	3.4 µM (inactive)	17.5 µM (inactive)	4.04 µM (inactive)	5.98 µM (inactive)	11.5 µM (inactive)
COc1cc(C2c3cc4c(cc3OC(NC3CCCCC3)C2C)OCO4)cc(OC)c1OC (stereo unspecified)	4.47 µM (inactive)	0.467 µM (active)	1.5 µM (inactive)	0.362 µM (active)	0.382 µM (active)	0.615 µM (active)	0.188 µM (active)	0.47 µM (active)	0.508 µM (active)	0.746 µM (active)	0.665 µM (active)	0.394 µM (active)	0.478 µM (active)	0.339 µM (active)	0.378 µM (active)	0.296 µM (active)	0.383 µM (active)	0.379 µM (active)	0.617 µM (active)
CC(C)c1cc(C(C)C)c(P2(=O)CC3C(Cl)(Cl)C3(C)C2)c(C(C)C)c1 (stereo unspecified)	15.8 µM (inactive)	8.67 µM (inactive)	13.4 µM (inactive)	10.1 µM (inactive)	6.7 µM (inactive)	4.94 µM (inactive)	10.9 µM (inactive)	7.29 µM (inactive)	8.71 µM (inactive)	12.5 µM (inactive)	12.1 µM (inactive)	16.4 µM (inactive)	14.5 µM (inactive)	6.44 µM (inactive)	1.74 µM (inactive)	6.04 µM (inactive)	9.33 µM (inactive)	8.04 µM (inactive)	6.68 µM (inactive)
O=c1ccc2ccc(OP(=O)(O)O)cc2o1	> 100 µM (inactive)	> 100 µM (inactive)	> 100 µM (inactive)	> 100 µM (inactive)	> 100 µM (inactive)	> 100 µM (inactive)	> 100 µM (inactive)	> 100 µM (inactive)	> 100 µM (inactive)	> 100 µM (inactive)	> 100 µM (inactive)	> 100 µM (inactive)	93.1 µM (inactive)	> 100 µM (inactive)	> 100 µM (inactive)	> 100 µM (inactive)	> 100 µM (inactive)	> 100 µM (inactive)	> 100 µM (inactive)
C=CC1=C(C)c2cc3[nH]c(c4c5nc(cc6[nH]c(cc1n2)c(C=O)c6CC)C(C)=C5C(=O)[C@@H]4C(=O)OC)[C@@H](CCC(=O)O)[C@@H]3C	> 100 µM (inactive)	9.25 µM (inactive)	> 100 µM (inactive)	30.3 µM (inactive)	63.4 µM (inactive)	> 100 µM (inactive)	> 100 µM (inactive)	65.5 µM (inactive)	> 100 µM (inactive)	46 µM (inactive)	63.5 µM (inactive)	> 100 µM (inactive)	13.4 µM (inactive)	20.7 µM (inactive)	10 µM (inactive)	> 100 µM (inactive)	> 100 µM (inactive)	> 100 µM (inactive)	> 100 µM (inactive)
Cc1oc2c(Cl)cc(O)c(Cl)c2c2cccc1-2	18.7 µM (inactive)	18.9 µM (inactive)	> 100 µM (inactive)	19.4 µM (inactive)	31.3 µM (inactive)	12 µM (inactive)	18.5 µM (inactive)	16.6 µM (inactive)	28.6 µM (inactive)	40.6 µM (inactive)	23.1 µM (inactive)	> 100 µM (inactive)	8.85 µM (inactive)	1.96 µM (inactive)	12.5 µM (inactive)	28.8 µM (inactive)	35.2 µM (inactive)	28.6 µM (inactive)	16.9 µM (inactive)
Cc1ccc(C(=O)/C=C(\O)C(=O)NN=C(c2ccccc2)c2ccccc2)cc1	> 100 µM (inactive)	46.2 µM (inactive)	80 µM (inactive)	53.1 µM (inactive)	40.2 µM (inactive)	63.1 µM (inactive)	> 100 µM (inactive)	36.5 µM (inactive)	> 100 µM (inactive)	45 µM (inactive)	62.7 µM (inactive)	> 100 µM (inactive)	> 100 µM (inactive)	> 100 µM (inactive)	27.2 µM (inactive)	30.5 µM (inactive)	> 100 µM (inactive)	68.9 µM (inactive)	12.2 µM (inactive)
Cc1c[nH]c(C(=O)O)c1-c1cccn1-c1ccc(Cl)cc1[N+](=O)[O-]	> 100 µM (inactive)	> 100 µM (inactive)	> 100 µM (inactive)	> 100 µM (inactive)	49.9 µM (inactive)	> 100 µM (inactive)	> 100 µM (inactive)	> 100 µM (inactive)	> 100 µM (inactive)	> 100 µM (inactive)	36.3 µM (inactive)	> 100 µM (inactive)	> 100 µM (inactive)	> 100 µM (inactive)	99.3 µM (inactive)	72.3 µM (inactive)	> 100 µM (inactive)	> 100 µM (inactive)	> 100 µM (inactive)
O=C1Nc2ccccc2C1S(=O)(=O)c1ccccc1 (stereo unspecified)	> 100 µM (inactive)	> 100 µM (inactive)	> 100 µM (inactive)	> 100 µM (inactive)	> 100 µM (inactive)	> 100 µM (inactive)	> 100 µM (inactive)	> 100 µM (inactive)	> 100 µM (inactive)	> 100 µM (inactive)	> 100 µM (inactive)	> 100 µM (inactive)	> 100 µM (inactive)	> 100 µM (inactive)	> 100 µM (inactive)	> 100 µM (inactive)	> 100 µM (inactive)	> 100 µM (inactive)	> 100 µM (inactive)
CCOC(=O)c1cn2c(n1)sc1cc(Cl)cc(Cl)c12	> 100 µM (inactive)	> 100 µM (inactive)	> 100 µM (inactive)	> 100 µM (inactive)	> 100 µM (inactive)	> 100 µM (inactive)	> 100 µM (inactive)	> 100 µM (inactive)	> 100 µM (inactive)	> 100 µM (inactive)	> 100 µM (inactive)	> 100 µM (inactive)	> 100 µM (inactive)	> 100 µM (inactive)	> 100 µM (inactive)	> 100 µM (inactive)	> 100 µM (inactive)	> 100 µM (inactive)	> 100 µM (inactive)
COC(=O)C(C)(C)[C@@H]1OC(=O)N(S(=O)(=O)c2c(C)cc(C)cc2C)[C@H]1C(C)C	> 100 µM (inactive)	> 100 µM (inactive)	> 100 µM (inactive)	41.8 µM (inactive)	32.7 µM (inactive)	98.2 µM (inactive)	> 100 µM (inactive)	52.8 µM (inactive)	88.1 µM (inactive)	> 100 µM (inactive)	> 100 µM (inactive)	> 100 µM (inactive)	> 100 µM (inactive)	63.5 µM (inactive)	75.7 µM (inactive)	> 100 µM (inactive)	65.8 µM (inactive)	> 100 µM (inactive)	78 µM (inactive)

Source: ChEMBL document CHEMBL1201862, “PubChem BioAssay data set” (2004)
